From EPA's ToxValDB 9.5

System: Rattus norvegicus
Details: short-term, duration: 28 days, oral, gavage, Sprague-Dawley

O=S(=O)(O)C(F)(F)C(F)(F)C(F)(F)C(F)(F)F [Perfluorobutanesulfonic acid]
LOEL (F, Clinical chemistry_Alanine aminotransferase): 250 mg/kg-day | NOEL (F, Clinical chemistry_Albumin): 1000 mg/kg-day | NOEL (F, Clinical chemistry_Albumin/globulin ratio): 1000 mg/kg-day | LOEL (F, Clinical chemistry_Alkaline phosphatase): 500 mg/kg-day | LOEL (F, Clinical chemistry_Aspartate aminotransferase): 500 mg/kg-day | LOEL (F, Clinical chemistry_Cholesterol): 500 mg/kg-day | LOEL (F, Clinical chemistry_Direct bilirubin): 500 mg/kg-day | LOEL (F, Clinical chemistry_Free thyroxine): 62.6 mg/kg-day | NOEL (F, Clinical chemistry_Globulin): 1000 mg/kg-day | NOEL (F, Clinical chemistry_Sorbitol dehydrogenase): 1000 mg/kg-day | NOEL (F, Clinical chemistry_Testosterone): 1000 mg/kg-day | NOEL (F, Clinical chemistry_Thyroid stimulating hormone): 1000 mg/kg-day | LOEL (F, Clinical chemistry_Total bile acids): 250 mg/kg-day | LOEL (F, Clinical chemistry_Total bilirubin): 500 mg/kg-day | NOEL (F, Clinical chemistry_Total protein): 1000 mg/kg-day | LOEL (F, Clinical chemistry_Total thyroxine): 62.6 mg/kg-day | LOEL (F, Clinical chemistry_Total triiodothyronine): 62.6 mg/kg-day | NOEL (F, Clinical chemistry_Triglycerides): 1000 mg/kg-day | LOEL (F, Gene expression_Acox1): 250 mg/kg-day | LOEL (F, Gene expression_Cyp2b1): 62.6 mg/kg-day | LOEL (F, Gene expression_Cyp2b2): 62.6 mg/kg-day | LOEL (F, Gene expression_Cyp4a1): 62.6 mg/kg-day | NOEL (F, Hematology_Erythrocytes): 1000 mg/kg-day | NOEL (F, Hematology_Hematocrit): 1000 mg/kg-day | NOEL (F, Hematology_Hemoglobin): 1000 mg/kg-day | NOEL (F, Hematology_Leukocytes): 1000 mg/kg-day | LOEL (F, Hematology_Reticulocytes): 125 mg/kg-day | NOEL (F, Hematology_S. neutrophils): 1000 mg/kg-day | LOEL (F, Nonneoplastic effects_Bone marrow - Hypocellularity): 1000 mg/kg-day | LOEL (F, Nonneoplastic effects_Kidney - Papilla, necrosis): 1000 mg/kg-day | LOEL (F, Nonneoplastic effects_Liver - Hepatocyte, cytoplasmic alteration): 500 mg/kg-day | LOEL (F, Nonneoplastic effects_Liver - Hepatocyte, hypertrophy): 500 mg/kg-day | NOEL (F, Nonneoplastic effects_Liver - Hepatocyte, vacuolization cytoplasmic): 1000 mg/kg-day | LOEL (F, Nonneoplastic effects_Liver - Necrosis): 1000 mg/kg-day | LOEL (F, Nonneoplastic effects_Nose - Olfactory epithelium, degeneration): 125 mg/kg-day | LOEL (F, Nonneoplastic effects_Nose - Olfactory epithelium, hyperplasia): 250 mg/kg-day | LOEL (F, Nonneoplastic effects_Nose - Olfactory epithelium, inflammation, suppurative): 1000 mg/kg-day | LOEL (F, Nonneoplastic effects_Nose - Olfactory epithelium, necrosis): 1000 mg/kg-day | NOEL (F, Nonneoplastic effects_Spleen - Extramedullary hematopoiesis, decreased): 1000 mg/kg-day | NOEL (F, Nonneoplastic effects_Stomach, forestomach - Epithelium, hyperplasia): 1000 mg/kg-day | LOEL (F, Nonneoplastic effects_Thymus - Atrophy): 1000 mg/kg-day | LOEL (F, Organ weights_Heart - Absolute): 500 mg/kg-day | NOEL (F, Organ weights_Heart - Relative): 1000 mg/kg-day | LOEL (F, Organ weights_Liver - Absolute): 250 mg/kg-day | LOEL (F, Organ weights_Liver - Relative): 125 mg/kg-day | NOEL (F, Organ weights_Lung - Absolute): 1000 mg/kg-day | NOEL (F, Organ weights_Lung - Relative): 1000 mg/kg-day | NOEL (F, Organ weights_R. adrenal gland - Absolute): 1000 mg/kg-day | NOEL (F, Organ weights_R. adrenal gland - Relative): 1000 mg/kg-day | NOEL (F, Organ weights_R. kidney - Absolute): 1000 mg/kg-day | LOEL (F, Organ weights_R. kidney - Relative): 62.6 mg/kg-day | LOEL (F, Organ weights_Spleen - Absolute): 500 mg/kg-day | NOEL (F, Organ weights_Spleen - Relative): 1000 mg/kg-day | LOEL (F, Organ weights_Thymus - Absolute): 500 mg/kg-day | NOEL (F, Organ weights_Thymus - Relative): 1000 mg/kg-day | LOEL (F, Reproductive toxicity_Altered estrous cyclicity): 250 mg/kg-day | LOEL (F, Survival rates): 250 mg/kg-day | LOEL (F, body weight): 1000 mg/kg-day | LOEL (M, Clinical chemistry_Alanine aminotransferase): 500 mg/kg-day | NOEL (M, Clinical chemistry_Albumin): 1000 mg/kg-day | LOEL (M, Clinical chemistry_Albumin/globulin ratio): 62.6 mg/kg-day | LOEL (M, Clinical chemistry_Alkaline phosphatase): 250 mg/kg-day | LOEL (M, Clinical chemistry_Aspartate aminotransferase): 500 mg/kg-day | LOEL (M, Clinical chemistry_Cholesterol): 62.6 mg/kg-day | LOEL (M, Clinical chemistry_Direct bilirubin): 500 mg/kg-day | LOEL (M, Clinical chemistry_Free thyroxine): 62.6 mg/kg-day | LOEL (M, Clinical chemistry_Globulin): 62.6 mg/kg-day | LOEL (M, Clinical chemistry_Sorbitol dehydrogenase): 500 mg/kg-day | NOEL (M, Clinical chemistry_Testosterone): 1000 mg/kg-day | NOEL (M, Clinical chemistry_Thyroid stimulating hormone): 1000 mg/kg-day | LOEL (M, Clinical chemistry_Total bile acids): 500 mg/kg-day | NOEL (M, Clinical chemistry_Total bilirubin): 1000 mg/kg-day | LOEL (M, Clinical chemistry_Total protein): 62.6 mg/kg-day | LOEL (M, Clinical chemistry_Total thyroxine): 62.6 mg/kg-day | LOEL (M, Clinical chemistry_Total triiodothyronine): 62.6 mg/kg-day | LOEL (M, Clinical chemistry_Triglycerides): 500 mg/kg-day | LOEL (M, Gene expression_Acox1): 125 mg/kg-day | LOEL (M, Gene expression_Acyl-CoA oxidase): 250 mg/kg-day | LOEL (M, Gene expression_Cyp2b1): 62.6 mg/kg-day | LOEL (M, Gene expression_Cyp2b2): 62.6 mg/kg-day | LOEL (M, Gene expression_Cyp4a1): 62.6 mg/kg-day | LOEL (M, Hematology_Erythrocytes): 125 mg/kg-day | LOEL (M, Hematology_Hematocrit): 125 mg/kg-day | LOEL (M, Hematology_Hemoglobin): 125 mg/kg-day | NOEL (M, Hematology_Leukocytes): 1000 mg/kg-day | LOEL (M, Hematology_Reticulocytes): 125 mg/kg-day | NOEL (M, Hematology_S. neutrophils): 1000 mg/kg-day | LOEL (M, Nonneoplastic effects_Bone marrow - Hypocellularity): 1000 mg/kg-day | LOEL (M, Nonneoplastic effects_Kidney - Papilla, necrosis): 1000 mg/kg-day | LOEL (M, Nonneoplastic effects_Liver - Hepatocyte, cytoplasmic alteration): 500 mg/kg-day | LOEL (M, Nonneoplastic effects_Liver - Hepatocyte, hypertrophy): 125 mg/kg-day | NOEL (M, Nonneoplastic effects_Liver - Hepatocyte, vacuolization cytoplasmic): 1000 mg/kg-day | LOEL (M, Nonneoplastic effects_Liver - Necrosis): 1000 mg/kg-day | LOEL (M, Nonneoplastic effects_Nose - Olfactory epithelium, degeneration): 250 mg/kg-day | LOEL (M, Nonneoplastic effects_Nose - Olfactory epithelium, hyperplasia): 250 mg/kg-day | LOEL (M, Nonneoplastic effects_Nose - Olfactory epithelium, inflammation, suppurative): 1000 mg/kg-day | LOEL (M, Nonneoplastic effects_Nose - Olfactory epithelium, necrosis): 1000 mg/kg-day | NOEL (M, Nonneoplastic effects_Spleen - Extramedullary hematopoiesis, decreased): 1000 mg/kg-day | LOEL (M, Nonneoplastic effects_Stomach, forestomach - Epithelium, hyperplasia): 1000 mg/kg-day | LOEL (M, Nonneoplastic effects_Thymus - Atrophy): 1000 mg/kg-day | LOEL (M, Organ weights_Heart - Absolute): 500 mg/kg-day | LOEL (M, Organ weights_Heart - Relative): 500 mg/kg-day | LOEL (M, Organ weights_Liver - Absolute): 125 mg/kg-day | LOEL (M, Organ weights_Liver - Relative): 62.6 mg/kg-day | NOEL (M, Organ weights_Lung - Absolute): 1000 mg/kg-day | NOEL (M, Organ weights_Lung - Relative): 1000 mg/kg-day | NOEL (M, Organ weights_R. adrenal gland - Absolute): 1000 mg/kg-day | NOEL (M, Organ weights_R. adrenal gland - Relative): 1000 mg/kg-day | LOEL (M, Organ weights_R. kidney - Absolute): 500 mg/kg-day | LOEL (M, Organ weights_R. kidney - Relative): 500 mg/kg-day | NOEL (M, Organ weights_Spleen - Absolute): 1000 mg/kg-day | NOEL (M, Organ weights_Spleen - Relative): 1000 mg/kg-day | LOEL (M, Organ weights_Thymus - Absolute): 500 mg/kg-day | LOEL (M, Organ weights_Thymus - Relative): 500 mg/kg-day | NOEL (M, Reproductive toxicity_Altered sperm parameters): 1000 mg/kg-day | LOEL (M, Survival rates): 1000 mg/kg-day | LOEL (M, body weight): 1000 mg/kg-day
